Measurements published in ChEMBL document CHEMBL4420076, “Amylin and calcitonin receptor agonist” (2017).
pEC50, pIC50: −log10 of the molar value. Numbered stars: 1 amine (or outer) side, 2 acyl side, 3 side chain; on linkers, the order of the positions; unused ones are H or OH. Peptide text beside a SMILES is read from it. * marks the point of attachment. C20 diacid = O=C(O)CCCCCCCCCCCCCCCCCCC(=O)*; C18 diacid = O=C(O)CCCCCCCCCCCCCCCCC(=O)*; γGlu = O=C(O)[C@H](CCC(=O)[*:2])N[*:1]; AEEA = NCCOCCOCC(=O)O

Tests used:
[1] = Terminal half life in Sprague-Dawley rat at 20 nmol/kg, sc by LC-MS analysis; format: ADME, organism-based; conditions: in vivo, read-out: beta t1/2 (converted)
[2] = Solubility in 100 mM bistrispropane buffer at pH 6.5 incubated for 18 hrs by UPLC analysis; format: physicochemical
[3] = Solubility in 100 mM bistrispropane buffer at pH 6.0 incubated for 18 hrs by UPLC analysis; format: physicochemical
[4] = Solubility in 100 mM bistrispropane buffer at pH 8.0 incubated for 18 hrs by UPLC analysis; format: physicochemical
[5] = Dose normalized AUC in LYD pig at 1.6 mM, sc co-formulated with 1.6 mM liraglutide by LC-MS analysis; format: ADME, organism-based, Sus scrofa; conditions: in vivo, 1600 µM
[6] = test system: Rattus norvegicus; experiment: Reduction in food intake in Sprague-Dawley rat at 3 nmol/kg measured 24 to 48 hrs post dose relative to control; format: functional; design: scale not given: the % may be the effect or the level left
[7] = Solubility in 100 mM glycylglycine buffer at pH 4.0 incubated for 18 hrs by UPLC analysis; format: physicochemical
[8] = Stability in pH 7.5 buffer assessed as compound recovery at 1 uM by Thioflavin T based fluorescence assay; format: physicochemical; conditions: read-out: Drug recovery
[9] = Solubility in 100 mM glycylglycine buffer at pH 3.0 incubated for 18 hrs by UPLC analysis; format: physicochemical
[10] = Half life in LYD pig at 1.6 mM, sc co-dosed with 1.6 mM liraglutide by LC-MS analysis; format: ADME, organism-based, Sus scrofa; conditions: in vivo
[11] = Solubility in 100 mM bistrispropane buffer at pH 7.0 incubated for 18 hrs by UPLC analysis; format: physicochemical
[12] = Stability in pH 7.5 buffer assessed as lag time for fibril formation at 1 uM by Thioflavin T based fluorescence assay; format: physicochemical; conditions: pH 7.5, 1 µM
[13] = Dose normalized AUC in LYD pig at 1.6 mM, sc co-dosed with 1.6 mM liraglutide by LC-MS analysis; format: ADME, organism-based, Sus scrofa; conditions: in vivo, 1600 µM
[14] = Solubility in 100 mM bistrispropane buffer at pH 7.5 incubated for 18 hrs by UPLC analysis; format: physicochemical
[15] = molecular target: T1, Calcitonin receptor (Homo sapiens, UniProt P30988); experiment: Agonist activity at human calcitonin receptor expressed in BHK570 cells assessed as increase in intracellular cAMP concentration incubated for 3 hrs in absence of albumin by CRE luciferase reporter gene assay; format: functional, cell-based
T1 sequence (P30988 whole entry): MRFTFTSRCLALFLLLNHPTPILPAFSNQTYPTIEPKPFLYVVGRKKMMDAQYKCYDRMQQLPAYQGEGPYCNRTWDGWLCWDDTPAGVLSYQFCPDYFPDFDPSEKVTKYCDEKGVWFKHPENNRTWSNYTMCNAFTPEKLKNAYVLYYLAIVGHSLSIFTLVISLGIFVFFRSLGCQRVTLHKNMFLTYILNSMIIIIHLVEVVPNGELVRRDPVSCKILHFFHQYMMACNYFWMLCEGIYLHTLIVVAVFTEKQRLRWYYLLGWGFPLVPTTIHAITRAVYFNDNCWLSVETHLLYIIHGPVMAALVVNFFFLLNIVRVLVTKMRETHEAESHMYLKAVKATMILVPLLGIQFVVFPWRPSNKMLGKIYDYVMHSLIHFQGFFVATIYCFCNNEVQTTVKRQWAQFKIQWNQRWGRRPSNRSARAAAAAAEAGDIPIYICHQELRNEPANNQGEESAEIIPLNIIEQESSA

[16] = molecular target: T1, Calcitonin receptor; experiment: Agonist activity at human calcitonin receptor expressed in BHK570 cells assessed as increase in intracellular cAMP concentration incubated for 3 hrs in presence of 10% FBS by CRE luciferase reporter gene assay; format: functional, cell-based
[17] = Solubility in 100 mM glycylglycine buffer at pH 5.0 incubated for 18 hrs by UPLC analysis; format: physicochemical
[18] = test system: Rattus norvegicus; experiment: Reduction in food intake in Sprague-Dawley rat at 3 nmol/kg measured 0 to 24 hrs post dose relative to control; format: functional; design: scale not given: the % may be the effect or the level left
[19] = Half life in LYD pig at 1.6 mM, sc co-formulated with 1.6 mM liraglutide by LC-MS analysis; format: ADME, organism-based, Sus scrofa; conditions: in vivo
[20] = molecular target: T2, Amylin receptor AMY3; CALCR/RAMP3 (Homo sapiens, UniProt O60896+P30988); experiment: Agonist activity at human amylin receptor expressed in BHK570 cells co-expressing RAMP3 assessed as increase in intracellular cAMP concentration incubated for 3 hrs in absence of albumin by CRE luciferase reporter gene assay; format: functional, cell-based
T2 sequence (P30988 whole entry): T1 sequence (P30988 whole entry)
T2 sequence (O60896 whole entry): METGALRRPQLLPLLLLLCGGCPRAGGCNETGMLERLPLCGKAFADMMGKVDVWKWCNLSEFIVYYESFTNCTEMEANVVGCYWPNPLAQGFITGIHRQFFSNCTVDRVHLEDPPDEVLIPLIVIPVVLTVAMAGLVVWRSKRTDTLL

[21] = molecular target: T2, Amylin receptor AMY3; CALCR/RAMP3; experiment: Agonist activity at human amylin receptor expressed in BHK570 cells co-expressing RAMP3 assessed as increase in intracellular cAMP concentration incubated for 3 hrs in presence of 10% FBS by CRE luciferase reporter gene assay; format: functional, cell-based
[22] = molecular target: T2, Amylin receptor AMY3; CALCR/RAMP3; experiment: Displacement of [125I]-labeled rat amylin from human amylin receptor expressed in BHK tkts13 whole cells co-expressing RAMP3 incubated for 60 mins by scintillation proximity assay; format: cell-based
[23] = molecular target: T1, Calcitonin receptor; experiment: Displacement of [125I]-labeled human calcitonin from human calcitonin receptor expressed in BHK tkts13 cell membranes incubated for 1 hr by scintillation proximity assay
[24] = molecular target: T2, Amylin receptor AMY3; CALCR/RAMP3; experiment: Displacement of [125I]-labeled rat amylin from human amylin receptor expressed in BHK570 cell membranes co-expressing RAMP3 incubated for 120 mins by scintillation proximity assay
[25] = molecular target: T1, Calcitonin receptor; experiment: Displacement of [125I]-labeled human calcitonin from human calcitonin receptor expressed in BHK tkts13 whole cells incubated for 60 mins by scintillation proximity assay; format: cell-based
[26] = test system: Rattus norvegicus; experiment: Reduction in body weight in Sprague-Dawley rat model of diet-induced obesity assessed as relative body weight at 0.1 mg/kg, sc dosed dosed once daily during 0 to 28 days and measured on day 28 relative to initial body weight (reference value: 99.8 +.- 1.1%); format: functional; design: scale not given: the % may be the effect or the level left

| SMILES | solubility at 18 h [2] | solubility at 18 h [3] | solubility at 18 h [4] | solubility at 18 h [7] | remaining at 1 µM [8] | solubility at 18 h [9] | solubility at 18 h [11] | Time [12] | solubility at 18 h [14] | pEC50 [15] | pEC50 [16] | solubility at 18 h [17] | pEC50 [20] | pEC50 [21] | also measured |
| --- | --- | --- | --- | --- | --- | --- | --- | --- | --- | --- | --- | --- | --- | --- | --- |
| CC(C)C[C@H](NC(=O)[C@H](CCCCN)NC(=O)CNC(=O)[C@H](CC(C)C)NC(=O)[C@@H](NC(=O)[C@H](CS)NC(=O)[C@@H](NC(=O)[C@H](CO)NC(=O)[C@H](CC(C)C)NC(=O)[C@H](CC(N)=O)NC(=O)[C@H](CO)NC(=O)[C@@H](N)CS)[C@@H](C)O)C(C)C)C(=O)N[C@@H](CO)C(=O)N[C@@H](CCC(N)=O)C(=O)N[C@@H](CCC(=O)O)C(=O)N[C@@H](CC(C)C)C(=O)N[C@@H](Cc1cnc[nH]1)C(=O)N[C@@H](CCCCN)C(=O)N[C@@H](CC(C)C)C(=O)N[C@@H](CCC(N)=O)C(=O)N[C@H](C(=O)N[C@@H](Cc1ccc(O)cc1)C(=O)N1CCC[C@H]1C(=O)N[C@@H](CCCNC(=N)N)C(=O)N[C@H](C(=O)N[C@@H](CC(N)=O)C(=O)N[C@H](C(=O)NCC(=O)N[C@@H](CO)C(=O)NCC(=O)N[C@H](C(=O)N1CCC[C@H]1C(=O)O)[C@@H](C)O)[C@@H](C)O)[C@@H](C)O)[C@@H](C)O |  |  |  |  |  |  |  |  |  |  |  |  |  |  | half-life [1]: 1 h |
| CC(C)C[C@H](NC(=O)[C@H](C)NC(=O)[C@H](C)NC(=O)[C@@H](NC(=O)[C@H](CO)NC(=O)[C@H](CC(C)C)NC(=O)[C@H](CCC(=O)O)NC(=O)[C@H](CO)NC(=O)[C@H](C)NC(=O)CC[C@H](NC(=O)CCCCCCCCCCCCCCCCC(=O)O)C(=O)O)[C@@H](C)O)C(=O)NCC(=O)N[C@@H](CCCNC(=N)N)C(=O)N[C@@H](CC(C)C)C(=O)N[C@@H](CO)C(=O)N[C@@H](C)C(=O)N[C@@H](CCC(=O)O)C(=O)N[C@@H](CC(C)C)C(=O)N[C@@H](Cc1cnc[nH]1)C(=O)N[C@@H](CCC(=O)O)C(=O)N[C@@H](CC(C)C)C(=O)N[C@@H](C)C(=O)N[C@H](C(=O)N[C@@H](CC(C)C)C(=O)N1CCC[C@H]1C(=O)N[C@@H](CCCNC(=N)N)C(=O)N[C@H](C(=O)N[C@@H](CCC(=O)O)C(=O)N[C@H](C(=O)NCC(=O)N[C@@H](CO)C(=O)NCC(=O)N[C@@H](CO)C(=O)N1CCC[C@H]1C(N)=O)[C@@H](C)O)[C@@H](C)O)[C@@H](C)O ({C18 diacid-γGlu}-ASELSTAALGRLSAELHELATLPRTETGSGSP-NH2) | ≥ 200 µM | ≥ 200 µM | ≥ 200 µM | ≥ 200 µM | 100% | ≥ 200 µM | ≥ 200 µM | > 45 h | ≥ 200 µM | 10.77 | 10.96 | ≥ 200 µM | 10.80 | 10.59 | AUC/dose [5]: 656 kg·h/L; Activity [6]: 78%; half-life at 1600 µM [10]: 129 h; AUC/dose [13]: 624 kg·h/L; Activity [18]: 82%; half-life at 1600 µM [19]: 133 h |
| CC(C)C[C@H](NC(=O)[C@H](C)NC(=O)[C@H](C)NC(=O)[C@@H](NC(=O)[C@H](CO)NC(=O)[C@H](CC(C)C)NC(=O)[C@H](CCC(=O)O)NC(=O)[C@H](CO)NC(=O)[C@H](C)NC(=O)COCCOCCNC(=O)COCCOCCNC(=O)COCCOCCNC(=O)CC[C@H](NC(=O)CCCCCCCCCCCCCCCCCCC(=O)O)C(=O)O)[C@@H](C)O)C(=O)NCC(=O)N[C@@H](CCCNC(=N)N)C(=O)N[C@@H](CC(C)C)C(=O)N[C@@H](CO)C(=O)N[C@@H](C)C(=O)N[C@@H](CCC(=O)O)C(=O)N[C@@H](CC(C)C)C(=O)N[C@@H](Cc1cnc[nH]1)C(=O)N[C@@H](CCC(=O)O)C(=O)N[C@@H](CC(C)C)C(=O)N[C@@H](C)C(=O)N[C@H](C(=O)N[C@@H](CC(C)C)C(=O)N1CCC[C@H]1C(=O)N[C@@H](CCCNC(=N)N)C(=O)N[C@H](C(=O)N[C@@H](CCC(=O)O)C(=O)N[C@H](C(=O)NCC(=O)N[C@@H](CO)C(=O)NCC(=O)N[C@@H](CO)C(=O)N1CCC[C@H]1C(N)=O)[C@@H](C)O)[C@@H](C)O)[C@@H](C)O ({C20 diacid-γGlu-AEEA-AEEA-AEEA}-ASELSTAALGRLSAELHELATLPRTETGSGSP-NH2) | ≥ 200 µM | ≥ 200 µM | ≥ 200 µM | ≥ 200 µM | 100% | ≥ 200 µM | ≥ 200 µM | > 45 h | ≥ 200 µM | 10.96 | 10.60 | ≥ 200 µM | 10.74 | 10.17 | pIC50 [22]: 9.36; pIC50 [23]: 10.30; pIC50 [24]: 9.79; pIC50 [25]: 9.45 |
| CCCCCCCCCCCCCCCC(=O)N[C@@H](CCC(=O)NCCCC[C@H](NC(=O)[C@H](C)NC(=O)[C@H](C)NC(=O)[C@H](CCC(N)=O)NC(=O)CNC(=O)[C@H](CCC(=O)O)NC(=O)[C@H](CC(C)C)NC(=O)[C@H](Cc1ccc(O)cc1)NC(=O)[C@H](CO)NC(=O)[C@H](CO)NC(=O)[C@@H](NC(=O)[C@H](CC(=O)O)NC(=O)[C@H](CO)NC(=O)[C@@H](NC(=O)[C@H](Cc1ccccc1)NC(=O)[C@@H](NC(=O)CNC(=O)[C@H](CCC(=O)O)NC(=O)[C@H](C)NC(=O)[C@@H](N)Cc1cnc[nH]1)[C@@H](C)O)[C@@H](C)O)C(C)C)C(=O)N[C@@H](CCC(=O)O)C(=O)N[C@@H](Cc1ccccc1)C(=O)N[C@H](C(=O)N[C@@H](C)C(=O)N[C@@H](Cc1c[nH]c2ccccc12)C(=O)N[C@@H](CC(C)C)C(=O)N[C@H](C(=O)N[C@@H](CCCNC(=N)N)C(=O)NCC(=O)N[C@@H](CCCNC(=N)N)C(=O)NCC(=O)O)C(C)C)[C@@H](C)CC)C(=O)O [LIRAGLUTIDE] |  |  |  |  |  |  |  |  |  |  |  |  |  |  | Activity [26]: 93.9% |
